The source of these data is US7374920B2, “Ginkgo biloba levopimaradiene synthase” (priority 2001, dated 2008).

Assay [1] deals with G. biloba seedlings, plants, and trees. The following applies: cited from earlier work; for effect on diterpenoid content: cycloartenol synthase inhibitors (Huh, et al., 1993).
The target in the next assay is T1, Levopimaradiene synthase (Ginkgo biloba, UniProt Q947C4).
T1 construct: thioredoxin (from pET32c(+)); made in house; host or cells: E. coli BL21(DE3), soluble fraction of the lysate
T1 sequence (Q947C4 60-873): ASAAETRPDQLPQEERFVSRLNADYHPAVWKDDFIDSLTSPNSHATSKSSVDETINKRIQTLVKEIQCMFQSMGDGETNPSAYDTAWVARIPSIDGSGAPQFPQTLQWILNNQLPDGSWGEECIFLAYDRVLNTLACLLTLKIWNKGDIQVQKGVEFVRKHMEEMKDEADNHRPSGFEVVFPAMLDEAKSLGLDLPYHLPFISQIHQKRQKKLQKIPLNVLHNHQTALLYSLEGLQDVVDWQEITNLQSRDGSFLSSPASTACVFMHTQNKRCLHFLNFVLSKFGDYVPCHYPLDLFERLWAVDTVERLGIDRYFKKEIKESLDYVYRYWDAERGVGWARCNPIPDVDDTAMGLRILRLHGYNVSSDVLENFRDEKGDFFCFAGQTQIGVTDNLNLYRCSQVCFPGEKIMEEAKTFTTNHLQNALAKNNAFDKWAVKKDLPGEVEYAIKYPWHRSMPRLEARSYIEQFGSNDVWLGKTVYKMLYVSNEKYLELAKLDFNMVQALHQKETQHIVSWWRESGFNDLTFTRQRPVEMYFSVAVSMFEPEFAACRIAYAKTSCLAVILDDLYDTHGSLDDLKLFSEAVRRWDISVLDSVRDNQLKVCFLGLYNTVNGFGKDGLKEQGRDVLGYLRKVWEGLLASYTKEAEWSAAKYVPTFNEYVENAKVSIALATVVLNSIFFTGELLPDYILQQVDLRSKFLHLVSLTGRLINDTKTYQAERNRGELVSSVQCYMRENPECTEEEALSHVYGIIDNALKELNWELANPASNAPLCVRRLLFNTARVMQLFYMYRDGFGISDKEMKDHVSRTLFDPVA
Kind of assay: levopimaradiene synthase activity towards geranyl diphosphate and farnesyl diphosphate. The class given is biochemical. The following applies: E. coli expression, 200 μM substrate, overnight at 32° C., GC or GC/MS. On the procedure:
Levopimaradiene synthase was also tested for activity towards 200 μM geranyl diphosphate and farnesyl diphosphate. Cell cultures were induced and lysed as noted above. The soluble fraction of the lysate was incubated overnight at 32° C. with 200 μM substrate in 30 mM HEPES, pH 7.2, 5 mM DTT, 5% glycerol, 2 mM MgCl2 and 500 μM MnCl2, and overlaid with hexane (1 mL).
(§1) All in vitro reactions were extracted 3× with hexane and dried over MgSO4. The reaction was further extracted twice with diethyl ether and dried over MgSO4. Thereafter, the crude lysate was suspended in 100 mM Tris, pH 8.0 containing 2.9 units/mg apyrase (a dephosphorylating agent) and 10 units/μL calf intestinal alkaline phosphatase, incubated at 30° C. for 3 hours, and extracted with diethyl ether as noted above (Croteau and Cane, 1985). The crude reaction mixtures were eluted over SiO2, concentrated, and analyzed by GC and GC/MS.
Gas chromatography spectra were obtained on a Hewlett Packard 6890 Series GC System equipped with an Rtx-5 capillary column (Restek, 30 m×0.25 mm i.d., 0.10 μm df). The following separation conditions and temperature program were employed: injector port 250° C., FID 250° C., split ratio 39:1, helium flow 20 cm/s (0.6 mL/min), 150° C. hold 5 min, increase to 250° C. (5° C./min), hold 5 min. […]

Assay [2] is described as follows: in vitro enzymatic assay of levopimaradiene synthase constructs expressed in E. coli BL21(DE3). The class given is biochemical, Escherichia coli. The following applies: E. coli BL21(DE3), soluble lysate fraction, 20 μM GGDP, overnight at 32° C., GC and GC/MS. On the procedure: The desired plasmids were prepared by ligating the mutated gene insert into the similarly digested vectors pET32c(+) (Novagen; Madison, Wis.) and pRS426GAL (Hua, 2000), a multiple copy yeast expression vector. These plasmids was expressed in E. coli BL21(DE3) (Novagen; Madison, Wis.). E. coli cells were grown in Luria-Bertani medium supplemented with 100 μg/mL ampicillin at 37° C. with shaking to OD600 ˜0.6. The following parameters were tested: isopropyl 1-thio-β-D-galactopyranoside (IPTG) concentration (50, 100, 250, 500, and 1000 μM); and temperature and time (20° C. for 2, 3, 4, 6, 21 hours, 22° C. for 6, 8, 16, 19, 22, 45 hours, and 30° C. for 3, 6 hours). The following assay conditions were tested to obtain maximum diterpene product yield: 30 mM HEPES (N-2-hydroxyethylpiperazine-N′-[…]), pH 6.9, 7.2, 7.6, 8.0; 30 mM Tris (tris(hydroxymethyl)aminomethane hydrochloride), pH 7.4, 7.8, 8.2; 1, 5, 10% glycerol; 1, 3, 5, 10, 20 mM DTT (dithiothreitol); 20 mM β-mercaptoethanol; 2, 5, 8% Triton X-100; 5% Tween 80; 0, 2, 7.5, 20, 50 mM MgCl2; 0, 30, 500, 1000 μM MnCl2; 2, 10, 13.3, 20, 40, 80, 200 μM GGDP; and 23° C. and 32° C. assay temperatures.
Optimal soluble protein production and diterpene yield were obtained with the following conditions. Cell cultures were induced with 1 mM IPTG at 20° C. with shaking for 6 hours and lysed by sonication in 30 mM HEPES, pH 7.2, 5 mM DTT, and 5% glycerol. The soluble fraction of the lysate (100 mg/mL) was incubated with 20 μM GGDP in 30 mM HEPES, pH 7.2, 5 mM DTT, 5% glycerol, 2 mM MgCl2, and 500 μM MnCl2 overnight at 32° C.
as §1
(§2) Gas chromatography spectra were obtained on a Hewlett Packard 6890 Series GC System equipped with an Rtx-5 capillary column (Restek, 30 m×0.25 mm i.d., 0.10 μm df). The following separation conditions and temperature program were employed: injector port 250° C., FID 250° C., split ratio 39:1, helium flow 20 cm/s (0.6 mL/min), 150° C. hold 5 min, increase to 250° C. (5° C./min), hold 5 min. GC/MS spectra were obtained on a Hewlett-Packard 5890A instrument with a 30-m DB-5 ms column (J&W Scientific Inc., 0.25 mm i.d., 0.10 μm df). The following separation conditions and temperature program were employed: injector port 280° C., transfer lines: 280° C., helium flow at 30 cm/s (1 mL/min) with splitless injection at 150° C. hold 3 min, increase to 250° C. (5° C./min), hold 5 min. Mass spectra (m/z 50 to 500) were obtained on a VG ZAB-HF reverse-geometry double-focusing instrument at 70 eV with an electron-impact ion source (200° C.). Accelerating voltage was set to 8 kV and the resolution was 1000 (10% valley).
The skilled artisan recognizes that lysis and assay conditions should be optimized. Examples of parameters that can be adjusted to optimize conditions include altering buffer, pH, reductant, reductant concentration, metal cofactors, cofactor concentrations, glycerol concentrations, substrate concentrations, and assay temperatures. […] Maximum soluble protein production and diterpene yield were obtained with the following conditions. Cell cultures were induced with 1 mM IPTG at 20° C. with shaking for 6 hours and lysed by sonication in 30 mM HEPES, pH 7.2, 5 mM DTT, and 5% glycerol. The soluble fraction of the lysate (100 mg/1 mL) was incubated with 20 μM GGDP in 30 mM HEPES, pH 7.2, 5 mM DTT, 5% glycerol, 2 mM MgCl2, and 500 μM MnCl2 overnight at 32° C. […]

The nature of assay [3]: in vitro assay of levopimaradiene synthase constructs expressed in wild-type S. cerevisiae JBY575. The following applies: wild-type S. cerevisiae JBY575, galactose 48 hours, lysate with GGDP. The class given is biochemical, Saccharomyces cerevisiae. How it is done: Expression in S. cerevisiae JBY575, which represents wild-type yeast, was observed. JBY575 cells transformed with pRS426GAL inserted with the putative levopimaradiene synthase were grown in synthetic complete medium lacking uracil and supplemented with 2% glucose and 1.5% agar at 30° C. to saturation and induced with galactose for 48 hours. Cells were harvested, resuspended in lysis buffer, and mixed by vortexing over glass beads. The lysate was assayed with 60 μM GGDP in the presence and absence of 0.2% and 5% Triton X-100.
as §1, §2
The skilled artisan recognizes that lysis and assay conditions should be optimized. Examples of parameters that can be adjusted to optimize conditions include altering buffer, pH, reductant, reductant concentration, metal cofactors, cofactor concentrations, glycerol concentrations, substrate concentrations, and assay temperatures. […] Maximum soluble protein production and diterpene yield were obtained with the following conditions. Cell cultures were induced with 1 mM IPTG at 20° C. with shaking for 6 hours and lysed by sonication in 30 mM HEPES, pH 7.2, 5 mM DTT, and 5% glycerol. The soluble fraction of the lysate (100 mg/1 mL) was incubated with 20 μM GGDP in 30 mM HEPES, pH 7.2, 5 mM DTT, 5% glycerol, 2 mM MgCl2, and 500 μM MnCl2 overnight at 32° C. Yeast expression was induced with galactose at 30° C. for 48 hours and the cells were lysed and assayed according to the conditions noted.

The test system of another assay is EHY18 yeast cells. The assay is described as follows: in vivo expression of GbLS constructs in yeast strain EHY18 that accumulates GGDP, GC quantitation of products. The class given is cell-based. The following applies: GC, GC/MS. How it is done: The yeast strain of the copending application employed was EHY18 (Hart, E., 2001) which was further transformed with multiple-copy yeast expression vectors comprising an isolated and purified nucleic acid sequence of GbLS or derivatives thereof, which are described herein under control of the GAL1 inducible promoter. Yeast cells were grown to saturation in 5 mL ScD-Leu-Ura at 30° C. Cells were harvested (1300×g, 2 min, 25° C.) and resuspended in 500 μL sterile Milli-Q H2O (2×). The washed cells were resuspended in 5 mL sterile Milli-Q H2O. An aliquot of the culture (5 μL) was added to a 25 mL Corex tube containing pre-prepared 2× resin and 5 mL ScG-Leu-Ura (4% galactose) and shaken at 30° C. for 6 days. Resin was collected by filtration through a Kontes chromatography column (1.7 cm diameter) and rinsed with dI H2O until eluent was clear. The resin was incubated in 2 mL ethanol for several minutes, eluted, and repeated 2×. The combined eluents were dissolved in approximately 3 mL dI H2O and extracted (3×) with 3 mL hexane. The combined extracts were concentrated under a stream of nitrogen. GC analysis (quantitation extrapolated from 0.2 mg/mL longifolene external standard) indicated the following product profile (obtained from triplicate measurement of three cultures): 0.61±0.20 mg/L levopimaradiene, 0.04±0.01 mg/L abietadiene, 0.15±0.05 mg/L abietatriene, 0.16±0.13 mg/L (+)-copalol, and 1.79±0.90 mg/L geranylgeraniol. GC/MS fragmentation confirmed the identity of each compound.
A large scale culture (1-L) was prepared by growing the yeast cells to saturation in 5 mL ScD-Leu-Ura at 30° C. Cells were harvested (1300×g, 2 min, 25° C.) and resuspended in 500 μL sterile Milli-Q H2O (2×). The washed cells were resuspended in 5 mL sterile Milli-Q H2O. An aliquot of the culture (1 mL) was added to a 2 L flask containing 1-L ScG-Leu-Ura (4% galactose) and 88.27 g resin in 120 mL Milli-Q H2O (pre-prepared). The resin was eluted with ethanol (3×100 mL with 20 min incubation periods), which was subsequently extracted (6×) with hexane. The combined extracts were dried over magnesium sulfate, filtered, and concentrated under reduced pressure. GC analysis (quantitation extrapolated from 0.2 mg/mL longifolene external standard) indicated the following product profile (obtained from triplicate measurement): 0.29±0.04 mg/L levopimaradiene, 0.04±0.02 mg/L abietadiene, 0.13±0.04 mg/L abietatriene, 0.11±0.02 mg/L (+)-copalol, and 0.56±0.03 mg/L geranylgeraniol. GC/MS analyses confirmed the production of the above noted diterpenes, which included hydrocarbons and an alcohol.
Further optimization studies employed the Ser61 construct. Factors influencing diterpene production included induction period and concentration of galactose and resin in the inducing medium.

“Also recorded” adds a separate entry of the source.

`Cc1cc(OC(=O)N2CCCCC2)c(C(C)C)cc1[N+](C)(C)C.[Cl-]` [AMO-1618]: the “effect on diterpenoid content” value in assay [1] was “Variable results”.

Regarding `COc1ccc(C(O)(c2cncnc2)C2CC2)cc1` (stereo not shown) [ancymidol], in assay [1], the “effect on diterpenoid content” value is on record as “Variable results”.

As to `CC(C)=CCC/C(C)=C/COP(=O)(O)OP(=O)(O)O` [geranyl diphosphate], the “terpene formation from alternative substrate” value on Levopimaradiene synthase is given as “did not produce any identifiable terpenes”.

fluridone: in assay [1] (application to G. biloba (Huh, et al., 1993)), the increase in ginkgolides entry is “up to 78%”.

B1: Phe^129: Ginkgo biloba levopimaradiene synthase truncated at Cys^127-Met^128, referred to as Phe^129; SEQ.ID.NO:39 (protein, listed as Ginkgo biloba)
chain: MFQSMGDGETNPSAYDTAWVARIPSIDGSGAPQFPQTLQWILNNQLPDGSWGEECIFLAYDRVLNTLACLLTLKIWNKGDIQVQKGVEFVRKHMEEMKDEADNHRPSGFEVVFPAMLDEAKSLGLDLPYHLPFISQIHQKRQKKLQKIPLNVLHNHQTALLYSLEGLQDVVDWQEITNLQSRDGSFLSSPASTACVFMHTQNKRCLHFLNFVLSKFGDYVPCHYPLDLFERLWAVDTVERLGIDRYFKKEIKESLDYVYRYWDAERGVGWARCNPIPDVDDTAMGLRILRLHGYNVSSDVLENFRDEKGDFFCFAGQTQIGVTDNLNLYRCSQVCFPGEKIMEEAKTFTTNHLQNALAKNNAFDKWAVKKDLPGEVEYAIKYPWHRSMPRLEARSYIEQFGSNDVWLGKTVYKMLYVSNEKYLELAKLDFNMVQALHQKETQHIVSWWRESGFNDLTFTRQRPVEMYFSVAVSMFEPEFAACRIAYAKTSCLAVILDDLYDTHGSLDDLKLFSEAVRRWDISVLDSVRDNQLKVCFLGLYNTVNGFGKDGLKEQGRDVLGYLRKVWEGLLASYTKEAEWSAAKYVPTFNEYVENAKVSIALATVVLNSIFFTGELLPDYILQQVDLRSKFLHLVSLTGRLINDTKTYQAERNRGELVSSVQCYMRENPECTEEEALSHVYGIIDNALKELNWELANPASNAPLCVRRLLFNTARVMQLFYMYRDGFGISDKEMKDHVSRTLFDPVA
For the molecule B1, the “diterpene product on bacterial expression” value in assay [2] is recorded as “failed to produce detectable levels of any diterpene; also recorded: complete loss of enzymatic activity”. In assay [3], the “diterpene product on yeast expression” value is “failed to produce observable levels of any diterpene product; also recorded: failed to produce detectable levels of biosynthetic product”. Further, the “diterpene products on expression in EHY18” value with EHY18 yeast cells is “no diterpene alcohol or hydrocarbon formation”.
